Source: ChEMBL document CHEMBL1140494, “Imidazopiperidine amides as dipeptidyl peptidase IV inhibitors for the treatment of diabetes” (Bioorg Med Chem Lett, 2007)

Experiments:
[1] = target: Dipeptidyl peptidase 2 (Homo sapiens, UniProt Q9UHL4); assay: Inhibition of QPP
[2] = target: Dipeptidyl peptidase 4 (Homo sapiens, UniProt P27487); assay: Inhibition of DPP4
[3] = target: Dipeptidyl peptidase 9 (Homo sapiens, UniProt Q86TI2); assay: Inhibition of DPP9
[4] = Plasma clearance in rat at 1 mg/kg, iv and 2 mg/kg, po; format: ADME, organism-based
[5] = Volume of distribution at steady state in rat at 1 mg/kg, iv and 2 mg/kg, po; format: ADME, organism-based; details: in vivo, read-out: Vdss
[6] = Half life in rat at 1 mg/kg, iv and 2 mg/kg, po; format: ADME, organism-based; details: in vivo
[7] = Cmax in rat at 2 mg/kg, po; format: ADME, organism-based; parameters: dose 2 mg/kg, route oral; details: in vivo
[8] = Oral bioavailability in rat at 2 mg/kg, po; format: ADME, organism-based; details: in vivo
[9] = target: Dipeptidyl peptidase 8 (Homo sapiens, UniProt Q6V1X1); assay: Inhibition of DPP8
Sequence of Dipeptidyl peptidase 8 (Q6V1X1 whole entry): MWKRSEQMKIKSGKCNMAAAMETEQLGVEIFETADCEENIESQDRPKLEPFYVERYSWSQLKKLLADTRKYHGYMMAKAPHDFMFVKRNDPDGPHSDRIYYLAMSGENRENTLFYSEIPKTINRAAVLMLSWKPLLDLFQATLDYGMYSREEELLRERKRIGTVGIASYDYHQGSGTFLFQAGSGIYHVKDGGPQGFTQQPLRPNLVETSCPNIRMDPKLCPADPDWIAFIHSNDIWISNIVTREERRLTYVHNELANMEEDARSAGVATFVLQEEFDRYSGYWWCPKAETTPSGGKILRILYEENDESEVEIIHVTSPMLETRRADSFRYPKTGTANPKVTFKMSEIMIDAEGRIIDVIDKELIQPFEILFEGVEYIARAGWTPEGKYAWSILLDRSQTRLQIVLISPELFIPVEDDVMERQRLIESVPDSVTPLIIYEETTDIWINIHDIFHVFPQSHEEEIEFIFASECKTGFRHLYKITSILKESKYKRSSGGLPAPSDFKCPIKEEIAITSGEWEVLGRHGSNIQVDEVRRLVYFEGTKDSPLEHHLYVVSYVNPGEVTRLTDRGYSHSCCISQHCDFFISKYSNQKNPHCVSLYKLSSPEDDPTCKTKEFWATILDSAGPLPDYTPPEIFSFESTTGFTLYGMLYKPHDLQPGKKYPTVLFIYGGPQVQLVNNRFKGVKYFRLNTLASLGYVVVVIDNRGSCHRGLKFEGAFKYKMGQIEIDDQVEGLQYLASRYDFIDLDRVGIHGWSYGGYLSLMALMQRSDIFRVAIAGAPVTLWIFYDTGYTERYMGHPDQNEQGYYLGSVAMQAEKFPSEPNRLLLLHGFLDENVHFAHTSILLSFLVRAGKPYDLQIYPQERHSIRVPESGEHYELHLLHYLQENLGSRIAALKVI

Sequence of Dipeptidyl peptidase 9 (Q86TI2 whole entry): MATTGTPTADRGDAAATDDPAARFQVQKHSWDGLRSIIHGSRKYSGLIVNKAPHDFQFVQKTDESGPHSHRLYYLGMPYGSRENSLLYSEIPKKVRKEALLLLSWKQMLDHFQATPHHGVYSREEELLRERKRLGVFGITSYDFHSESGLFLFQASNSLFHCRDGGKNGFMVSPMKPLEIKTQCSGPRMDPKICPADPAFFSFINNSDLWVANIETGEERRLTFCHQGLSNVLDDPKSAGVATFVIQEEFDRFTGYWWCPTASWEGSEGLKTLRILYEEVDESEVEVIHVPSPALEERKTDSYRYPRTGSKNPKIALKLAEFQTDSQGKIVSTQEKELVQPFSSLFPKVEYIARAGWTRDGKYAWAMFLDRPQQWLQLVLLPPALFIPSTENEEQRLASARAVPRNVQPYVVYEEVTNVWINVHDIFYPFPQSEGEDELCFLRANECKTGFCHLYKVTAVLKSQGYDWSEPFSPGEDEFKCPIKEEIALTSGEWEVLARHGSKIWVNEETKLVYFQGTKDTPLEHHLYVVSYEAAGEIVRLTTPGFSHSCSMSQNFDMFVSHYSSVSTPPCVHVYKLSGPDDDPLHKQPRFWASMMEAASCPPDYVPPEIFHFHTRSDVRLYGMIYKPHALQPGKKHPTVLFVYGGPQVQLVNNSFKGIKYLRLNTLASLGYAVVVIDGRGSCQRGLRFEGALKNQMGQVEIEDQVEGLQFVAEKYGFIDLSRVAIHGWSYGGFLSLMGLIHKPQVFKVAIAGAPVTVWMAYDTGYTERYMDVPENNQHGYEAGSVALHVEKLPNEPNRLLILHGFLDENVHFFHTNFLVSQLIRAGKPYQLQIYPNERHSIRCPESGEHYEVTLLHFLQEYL
Sequence of Dipeptidyl peptidase 4 (P27487 whole entry): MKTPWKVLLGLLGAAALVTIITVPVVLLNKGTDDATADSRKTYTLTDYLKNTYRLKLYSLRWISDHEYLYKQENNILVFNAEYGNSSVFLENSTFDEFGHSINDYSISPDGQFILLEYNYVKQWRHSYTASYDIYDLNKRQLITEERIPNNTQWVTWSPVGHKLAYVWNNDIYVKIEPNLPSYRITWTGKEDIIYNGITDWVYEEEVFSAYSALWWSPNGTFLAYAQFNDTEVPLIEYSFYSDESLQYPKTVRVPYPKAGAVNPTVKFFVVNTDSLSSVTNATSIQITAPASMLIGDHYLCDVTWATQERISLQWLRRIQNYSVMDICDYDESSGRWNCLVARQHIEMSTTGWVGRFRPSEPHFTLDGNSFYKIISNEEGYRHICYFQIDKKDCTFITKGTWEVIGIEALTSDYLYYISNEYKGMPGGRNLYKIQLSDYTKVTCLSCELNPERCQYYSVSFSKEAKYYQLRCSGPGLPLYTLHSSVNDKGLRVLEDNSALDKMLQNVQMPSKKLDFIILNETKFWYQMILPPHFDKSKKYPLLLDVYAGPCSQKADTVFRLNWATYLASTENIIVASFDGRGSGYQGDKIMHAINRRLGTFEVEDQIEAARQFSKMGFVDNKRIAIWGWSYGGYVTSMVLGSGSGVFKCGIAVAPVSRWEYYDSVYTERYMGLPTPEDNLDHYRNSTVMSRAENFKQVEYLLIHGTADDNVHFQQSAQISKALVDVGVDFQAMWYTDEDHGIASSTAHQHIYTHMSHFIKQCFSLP

| SMILES | IC50 [1] [µM] | IC50 [2] [µM] | IC50 [3] [µM] | clearance [4] [mL/min/kg] | Vd [5] [L/kg] | half-life [6] [h] | Cmax [7] [nM] | bioavailability [8] [%] | IC50 [9] [µM] |
| --- | --- | --- | --- | --- | --- | --- | --- | --- | --- |
| CC1c2nc(C3CC3)n(C)c2CCN1C(=O)C[C@H](N)Cc1cc(F)c(F)cc1F (stereo not given in full) [listing 1 of 2 here] | 30 | – | – | – | – | – | – | – | – |
| Cn1c(C(F)(F)F)nc2c1CCN(C(=O)C[C@H](N)Cc1cc(F)ccc1F)C2 | 92 | 0.15 | > 100 | – | – | – | – | – | – |
| CCn1c(C(F)(F)F)nc2c1CCN(C(=O)C[C@H](N)Cc1cc(F)ccc1F)C2 | > 100 | 0.18 | > 100 | – | – | – | – | – | – |
| CC(C)Cn1c(C(F)(F)F)nc2c1CCN(C(=O)C[C@H](N)Cc1cc(F)ccc1F)C2 | 49 | 0.22 | > 100 | – | – | – | – | – | – |
| N[C@@H](CC(=O)N1CCc2nc(C(F)(F)F)n(Cc3ccc(F)cc3)c2C1)Cc1cc(F)ccc1F | 56 | 0.25 | > 100 | – | – | – | – | – | > 100 |
| N[C@@H](CC(=O)N1CCc2[nH]c(C(F)(F)F)nc2C1)Cc1cc(F)ccc1F | > 100 | 0.14 | – | – | – | – | – | – | – |
| CC1c2nc(C(F)(F)F)n(C)c2CCN1C(=O)C[C@H](N)Cc1cc(F)ccc1F (stereo in doubt; 63a) | > 100 | 0.19 | > 100 | – | – | – | – | – | – |
| Cn1cnc2c1CCN(C(=O)C[C@H](N)Cc1cc(F)c(F)cc1F)C2C(F)(F)F (stereo in doubt; 67a) | 76 | 0.38 | > 100 | – | – | – | – | – | – |
| Cn1cnc2c1CCN(C(=O)C[C@H](N)Cc1cc(F)c(F)cc1F)C2C(F)(F)F (stereo in doubt; 67b) | 38 | 0.05 | > 100 | 93 | 8.3 | 1.4 | 50 | 16 | – |
| Cn1c(C(F)(F)F)nc2c1CCN(C(=O)C[C@H](N)Cc1cc(F)c(F)cc1F)C2C1CC1 (stereo in doubt; 68a) | > 100 | 0.34 | > 100 | – | – | – | – | – | – |
| Cn1c(C(F)(F)F)nc2c1CCN(C(=O)C[C@H](N)Cc1cc(F)c(F)cc1F)C2C1CC1 (stereo in doubt; 68b) | 37 | 0.11 | > 100 | – | – | – | – | – | – |
| CC1c2nc(C(C)(C)C)n(C)c2CCN1C(=O)C[C@H](N)Cc1cc(F)c(F)cc1F (stereo in doubt; 70a) | 37 | 0.63 | – | – | – | – | – | – | – |
| Cn1c(C(F)(F)F)nc2c1CCN(C(=O)C[C@H](N)Cc1cc(F)c(F)cc1F)C2Cc1ccccc1 (stereo in doubt; 71a) | 46 | 0.57 | > 100 | – | – | – | – | – | – |
| Cn1c(C(F)(F)F)nc2c1CCN(C(=O)C[C@H](N)Cc1cc(F)c(F)cc1F)C2Cc1ccc(F)cc1 (stereo in doubt; 72a) | 39 | 0.78 | > 100 | – | – | – | – | – | – |
| Cn1c(C(F)(F)F)nc2c1CCN(C(=O)C[C@H](N)Cc1cc(F)c(F)cc1F)C2Cc1ccc(F)cc1 (stereo in doubt; 72b) | 15 | 0.0058 | > 100 | – | – | – | – | – | – |

The remaining lines, values ahead:

| IC50 [1] [µM] | IC50 [2] [µM] | IC50 [3] [µM] | clearance [4] [mL/min/kg] | Vd [5] [L/kg] | half-life [6] [h] | Cmax [7] [nM] | bioavailability [8] [%] | IC50 [9] [µM] | SMILES |
| --- | --- | --- | --- | --- | --- | --- | --- | --- | --- |
| 64 | 0.25 | > 100 | – | – | – | – | – | – | N[C@@H](CC(=O)N1CCc2c(nc(C(F)(F)F)n2Cc2ccc(F)cc2)C1)Cc1cc(F)ccc1F |
| 39 | – | > 100 | 81 | 8 | 1.2 | 98 | 40 | – | CC1c2nc(C(F)(F)F)n(C)c2CCN1C(=O)C[C@H](N)Cc1cc(F)c(F)cc1F (stereo not given in full) |
| 90 | – | – | – | – | – | – | – | – | CC1c2nc(C3CC3)n(C)c2CCN1C(=O)C[C@H](N)Cc1cc(F)c(F)cc1F (stereo not given in full) [listing 2 of 2 here] |
| 85 | 0.26 | > 100 | – | – | – | – | – | > 100 | CC(C)Cn1c(C(F)(F)F)nc2c1CN(C(=O)C[C@H](N)Cc1cc(F)ccc1F)CC2 |
| > 100 | 0.065 | > 100 | – | – | – | – | – | – | CC1c2nc(C(F)(F)F)n(C)c2CCN1C(=O)C[C@H](N)Cc1cc(F)ccc1F (stereo in doubt; 63b) |
| 19 | 0.37 | – | – | – | – | – | – | – | CC1c2nc(C(C)(C)C)n(C)c2CCN1C(=O)C[C@H](N)Cc1cc(F)c(F)cc1F (stereo in doubt; 70b) |
| 20 | 0.0084 | > 100 | 64 | 6.5 | 1.5 | 72 | 16 | – | Cn1c(C(F)(F)F)nc2c1CCN(C(=O)C[C@H](N)Cc1cc(F)c(F)cc1F)C2Cc1ccccc1 (stereo in doubt; 71b) |
